# Results taken from patent US12410208B2, “(2-acetamidyl)thio-beta-D-galactopyranoside derivatives” (Idorsia Pharmaceuticals Ltd, priority 2020, dated 2025).
# Read-outs that look alike come from different tables or passages of the source.
# Assays:
# [1] = target: biotinylated human Gal-3 (hGal-3) (Homo sapiens, UniProt P17931); test: Competitive binding assay: biotinylated hGal-3 binding to microplate-adsorbed asialofetuin (ASF), spectrophotometric
# In short: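 Serially diluted compounds competed with asialofetuin on the plate for biotinylated human Gal-3 during a 3 h incubation at 4° C. Streptavidin-peroxidase with ABTS gave the spectrophotometric signal. IC50 values were averaged over repeat runs.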
# [2] = target: human Gal-1 (hGal-1) (Homo sapiens, UniProt P09382); test: Competitive binding assay: biotinylated hGal-1 binding to microplate-adsorbed asialofetuin (ASF), spectrophotometric; details: hGal-1 binding to asialofetuin; Table 15; R and S epimers of selected Examples also listed; read-out: IC50 (Galectin-1 inhibition)
# In short: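 Spectrophotometric competition readout with ABTS after streptavidin-peroxidase (80 ng/mL, 1 h, 4 °C) detection of bound biotinylated hGal-1.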
# [3] = Table 8, hGal-3, read-out: IC50 (Gal-3 inhibition)
# [4] = Gal-3 inhibition, Table 1 (Reference Examples), read-out: IC50
# [5] = Gal-3 inhibition, Table 7, read-out: IC50
# Chain of biotinylated human Gal-3 (hGal-3) (P17931 whole entry): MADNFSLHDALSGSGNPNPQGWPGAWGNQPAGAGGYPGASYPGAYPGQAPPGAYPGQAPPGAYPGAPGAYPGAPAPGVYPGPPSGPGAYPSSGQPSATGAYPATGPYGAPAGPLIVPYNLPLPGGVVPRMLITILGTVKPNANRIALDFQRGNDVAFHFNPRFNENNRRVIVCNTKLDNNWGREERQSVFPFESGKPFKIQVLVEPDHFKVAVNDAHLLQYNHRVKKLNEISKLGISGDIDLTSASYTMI
# Chain of human Gal-1 (hGal-1) (P09382 whole entry): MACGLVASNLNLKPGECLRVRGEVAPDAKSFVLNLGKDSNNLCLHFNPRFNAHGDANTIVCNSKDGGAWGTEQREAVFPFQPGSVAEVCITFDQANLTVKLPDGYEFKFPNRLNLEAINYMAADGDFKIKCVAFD
SMILES,"IC50 [1, 3] [nM]",IC50 [2] [nM],"IC50 [1, 4] [nM]","IC50 [1, 5] [nM]"
"CCN(C)C(=O)[C@H](S[C@@H]1O[C@H](CO)[C@H](O)[C@H](n2cc(-c3cc(F)c(F)c(F)c3)nn2)[C@H]1O)C1(O)CCN(C(=O)NC2CC2)CC1 [Example 2.49.203R., (R)-N-Cyclopropyl-4-(1-(((2S,3R,4S,5R,6R)-3,5-dihydroxy-6-(hydroxymethyl)-4-(4-(3,4,5-trifluorophenyl)-1H-1,2,3-triazol-1-yl)tetrahydro-2H-pyran-2-yl)thio)-2-(ethyl(methyl)amino)-2-oxoethyl)-4-hydroxypiperidine-1-carboxamide]",2650,4430,–,–
"CCN(C)C(=O)[C@@H](S[C@@H]1O[C@H](CO)[C@H](O)[C@H](n2cc(-c3cc(F)c(F)c(F)c3)nn2)[C@H]1O)C1(O)CCN(C(=O)NC2CC2)CC1 [Example 2.49.203S., (S)-N-Cyclopropyl-4-(1-(((2S,3R,4S,5R,6R)-3,5-dihydroxy-6-(hydroxymethyl)-4-(4-(3,4,5-trifluorophenyl)-1H-1,2,3-triazol-1-yl)tetrahydro-2H-pyran-2-yl)thio)-2-(ethyl(methyl)amino)-2-oxoethyl)-4-hydroxypiperidine-1-carboxamide]",40,60,–,–
"CCN(C)C(=O)[C@H](S[C@@H]1O[C@H](CO)[C@H](O)[C@H](n2cc(-c3cc(F)c(F)c(F)c3)nn2)[C@H]1OC)C1(O)CCN(C(=O)NC2CC2)CC1 [Example 2.49.226R.I., N-Cyclopropyl-4-((R)-2-(ethyl(methyl)amino)-1-(((2S,3R,4S,5R,6R)-5-hydroxy-6-(hydroxymethyl)-3-methoxy-4-(4-(3,4,5-trifluorophenyl)-1H-1,2,3-triazol-1-yl)tetrahydro-2H-pyran-2-yl)thio)-2-oxoethyl)-4-hydroxypiperidine-1-carboxamide]",1740,80,–,–
"CCN(C)C(=O)[C@@H](S[C@@H]1O[C@H](CO)[C@H](O)[C@H](n2cc(-c3cc(F)c(F)c(F)c3)nn2)[C@H]1OC)C1(O)CCN(C(=O)NC2CC2)CC1 [Example 2.49.226S.I., N-Cyclopropyl-4-((S)-2-(ethyl(methyl)amino)-1-(((2S,3R,4S,5R,6R)-5-hydroxy-6-(hydroxymethyl)-3-methoxy-4-(4-(3,4,5-trifluorophenyl)-1H-1,2,3-triazol-1-yl)tetrahydro-2H-pyran-2-yl)thio)-2-oxoethyl)-4-hydroxypiperidine-1-carboxamide]",60,1700,–,–
"CCN(C)C(=O)C(S[C@@H]1O[C@H](CO)[C@H](O)[C@H](n2cc(-c3cc(F)c(F)c(F)c3)nn2)[C@H]1O)C1(O)CCN(C(=O)OC)CC1 (stereo partly drawn) [Example 2.50.203., Methyl 4-(1-(((2S,3R,4S,5R,6R)-3,5-dihydroxy-6-(hydroxymethyl)-4-(4-(3,4,5-trifluorophenyl)-1H-1,2,3-triazol-1-yl)tetrahydro-2H-pyran-2-yl)thio)-2-(ethyl(methyl)amino)-2-oxoethyl)-4-hydroxypiperidine-1-carboxylate]",70,100,–,–
"CCN(C)C(=O)[C@H](S[C@@H]1O[C@H](CO)[C@H](O)[C@H](n2cc(-c3cc(F)c(F)c(F)c3)nn2)[C@H]1O)C1(O)CCN(C(=O)OC)CC1 [Example 2.50.203R., (R)-Methyl 4-(1-(((2S,3R,4S,5R,6R)-3,5-dihydroxy-6-(hydroxymethyl)-4-(4-(3,4,5-trifluorophenyl)-1H-1,2,3-triazol-1-yl)tetrahydro-2H-pyran-2-yl)thio)-2-(ethyl(methyl)amino)-2-oxoethyl)-4-hydroxypiperidine-1-carboxylate]",4450,10500,–,–
"CCN(C)C(=O)[C@@H](S[C@@H]1O[C@H](CO)[C@H](O)[C@H](n2cc(-c3cc(F)c(F)c(F)c3)nn2)[C@H]1O)C1(O)CCN(C(=O)OC)CC1 [Example 2.50.203S., (S)-Methyl 4-(1-(((2S,3R,4S,5R,6R)-3,5-dihydroxy-6-(hydroxymethyl)-4-(4-(3,4,5-trifluorophenyl)-1H-1,2,3-triazol-1-yl)tetrahydro-2H-pyran-2-yl)thio)-2-(ethyl(methyl)amino)-2-oxoethyl)-4-hydroxypiperidine-1-carboxylate]",40,60,–,–
"CCN(C)C(=O)C(S[C@@H]1O[C@H](CO)[C@H](O)[C@H](n2cc(-c3cc(F)c(F)c(F)c3)nn2)[C@H]1O)C1(O)CCN(S(=O)(=O)C2CC2)CC1 (stereo partly drawn) [Example 2.51.203., 2-(1-(Cyclopropylsulfonyl)-4-hydroxypiperidin-4-yl)-2-(((2S,3R,4S,5R,6R)-3,5-dihydroxy-6-(hydroxymethyl)-4-(4-(3,4,5-trifluorophenyl)-1H-1,2,3-triazol-1-yl)tetrahydro-2H-pyran-2-yl)thio)-N-ethyl-N-methylacetamide]",30,70,–,–
"CCN(C)C(=O)[C@H](S[C@@H]1O[C@H](CO)[C@H](O)[C@H](n2cc(-c3cc(F)c(F)c(F)c3)nn2)[C@H]1O)C1(O)CCN(S(=O)(=O)C2CC2)CC1 [Example 2.51.203R., (R)-2-(1-(Cyclopropylsulfonyl)-4-hydroxypiperidin-4-yl)-2-(((2S,3R,4S,5R,6R)-3,5-dihydroxy-6-(hydroxymethyl)-4-(4-(3,4,5-trifluorophenyl)-1H-1,2,3-triazol-1-yl)tetrahydro-2H-pyran-2-yl)thio)-N-ethyl-N-methylacetamide]",4960,7500,–,–
"CCN(C)C(=O)[C@@H](S[C@@H]1O[C@H](CO)[C@H](O)[C@H](n2cc(-c3cc(F)c(F)c(F)c3)nn2)[C@H]1O)C1(O)CCN(S(=O)(=O)C2CC2)CC1 [Example 2.51.203S., (S)-2-(1-(Cyclopropylsulfonyl)-4-hydroxypiperidin-4-yl)-2-(((2S,3R,4S,5R,6R)-3,5-dihydroxy-6-(hydroxymethyl)-4-(4-(3,4,5-trifluorophenyl)-1H-1,2,3-triazol-1-yl)tetrahydro-2H-pyran-2-yl)thio)-N-ethyl-N-methylacetamide [1,3-di-deoxy-1-((2-(1-(cyclopropylsulfonyl)-4-hydroxypiperidin-4-yl)-N-ethyl-N-methylacetamide)-(S)-thio)-3-[4-(3,4,5-trifluorophenyl)-1H-1,2,3-triazol-1-yl]-β-D-galactopyranoside]]",20,30,–,–
"CCN(C)C(=O)C(S[C@@H]1O[C@H](CO)[C@H](O)[C@H](n2cc(-c3cc(F)c(F)c(F)c3)nn2)[C@H]1O)C(C)C (stereo partly drawn) [Example 2.53.203., 2-(((2S,3R,4S,5R,6R)-3,5-dihydroxy-6-(hydroxymethyl)-4-(4-(3,4,5-trifluorophenyl)-1H-1,2,3-triazol-1-yl)tetrahydro-2H-pyran-2-yl)thio)-N-ethyl-N,3-dimethylbutanamide, reference compound]",–,35900,7800,–
"CCN(C)C(=O)[C@@H](S[C@@H]1O[C@H](CO)[C@H](O)[C@H](n2cc(-c3cc(F)c(F)c(F)c3)nn2)[C@H]1O)C1CCOCC1 [Example 2.56.203S., (S)-2-(((2S,3R,4S,5R,6R)-3,5-dihydroxy-6-(hydroxymethyl)-4-(4-(3,4,5-trifluorophenyl)-1H-1,2,3-triazol-1-yl)tetrahydro-2H-pyran-2-yl)thio)-N-ethyl-N-methyl-2-(tetrahydro-2H-pyran-4-yl)acetamide, reference compound]",–,36000,6860,–
"CCC(O)C(S[C@@H]1O[C@H](CO)[C@H](O)[C@H](n2cc(-c3cc(F)c(F)c(F)c3)nn2)[C@H]1O)C(=O)N(C)CC (stereo partly drawn) [Example 2.60.203., 2-(((2S,3R,4S,5R,6R)-3,5-Dihydroxy-6-(hydroxymethyl)-4-(4-(3,4,5-trifluorophenyl)-1H-1,2,3-triazol-1-yl)tetrahydro-2H-pyran-2-yl)thio)-N-ethyl-3-hydroxy-N-methylpentanamide]",–,1020,–,170
"CCC(O)C(S[C@@H]1O[C@H](CO)[C@H](O)[C@H](n2cc(-c3cc(F)c(F)c(F)c3)nn2)[C@H]1O)C(=O)N1CCC1 (stereo partly drawn) [Example 2.60.206., 1-(Azetidin-1-yl)-2-(((2S,3R,4S,5R,6R)-3,5-dihydroxy-6-(hydroxymethyl)-4-(4-(3,4,5-trifluorophenyl)-1H-1,2,3-triazol-1-yl)tetrahydro-2H-pyran-2-yl)thio)-3-hydroxypentan-1-one]",–,3400,–,500
"O=C(C(S[C@@H]1O[C@H](CO)[C@H](O)[C@H](n2cc(-c3cc(F)c(F)c(F)c3)nn2)[C@H]1O)C(O)Cc1ccccc1)N1CCC1 (stereo partly drawn) [Example 2.64.206., 1-(Azetidin-1-yl)-2-(((2S,3R,4S,5R,6R)-3,5-dihydroxy-6-(hydroxymethyl)-4-(4-(3,4,5-trifluorophenyl)-1H-1,2,3-triazol-1-yl)tetrahydro-2H-pyran-2-yl)thio)-3-hydroxy-4-phenylbutan-1-one]",–,5940,–,710
"CN(CC1CC1)C(=O)C(S[C@@H]1O[C@H](CO)[C@H](O)[C@H](n2cc(-c3cc(F)c(F)c(F)c3)nn2)[C@H]1O)C(O)Cc1ccccc1 (stereo partly drawn) [Example 2.64.218., N-(Cyclopropylmethyl)-2-(((2S,3R,4S,5R,6R)-3,5-dihydroxy-6-(hydroxymethyl)-4-(4-(3,4,5-trifluorophenyl)-1H-1,2,3-triazol-1-yl)tetrahydro-2H-pyran-2-yl)thio)-3-hydroxy-N-methyl-4-phenylbutanamide]",–,340,–,110
"CCN(C)C(=O)C(S[C@@H]1O[C@H](CO)[C@H](O)[C@H](n2cc(-c3cc(F)c(F)c(F)c3)nn2)[C@H]1O)C(O)c1ccn(C)n1 (stereo partly drawn) [Example 2.65.203., 2-(((2S,3R,4S,5R,6R)-3,5-dihydroxy-6-(hydroxymethyl)-4-(4-(3,4,5-trifluorophenyl)-1H-1,2,3-triazol-1-yl)tetrahydro-2H-pyran-2-yl)thio)-N-ethyl-3-hydroxy-N-methyl-3-(1-methyl-1H-pyrazol-3-yl)propanamide]",–,3050,–,650
